Legend:
Experiment in all cases: relative viability (nuclei count vs DMSO), 5 days (fraction); higher = more cells survive
CAL-12T = tested on: CAL-12T
Method in brief: (§1)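 Lung cancer cell lines in 1536-well plates were dosed by pin tool the day after seeding, either with one drug alone or with a fixed anchor-drug dose plus five library-drug doses (not always all listed) in √10 steps. After 5 days, cells were fixed and their nuclei stained in one step (final 0.05% Triton X-100, 1% formaldehyde, 1 ug/ml Hoechst), then counted on 4× images. Relative viability is the nuclei count in treated wells divided by that in vehicle wells. Values are medians of duplicate plates.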

EKVX = tested on: EKVX
Method in brief: as §1

H3255 = tested on: H3255
Method in brief: as §1

HCC-15 = tested on: HCC-15
Method in brief: as §1

HCC-827 = tested on: HCC-827
Method in brief: as §1

LCLC-97TM1 = tested on: LCLC-97TM1
Method in brief: as §1

LK-2 = tested on: LK-2
Method in brief: as §1

NCI-H1355 = tested on: NCI-H1355
Method in brief: as §1

NCI-H1563 = tested on: NCI-H1563
Method in brief: as §1

NCI-H1734 = tested on: NCI-H1734
Method in brief: as §1

NCI-H1755 = tested on: NCI-H1755
Method in brief: as §1

NCI-H1975 = tested on: NCI-H1975
Method in brief: as §1

NCI-H2228 = tested on: NCI-H2228
Method in brief: as §1

NCI-H2405 = tested on: NCI-H2405
Method in brief: as §1

NCI-H322M = tested on: NCI-H322M
Method in brief: as §1

NCI-H520 = tested on: NCI-H520
Method in brief: as §1

NCI-H661 = tested on: NCI-H661
Method in brief: as §1

PC-14 = tested on: PC-14
Method in brief: as §1

PC-3 [JPC-3] = tested on: PC-3 [JPC-3]
Method in brief: as §1

RERF-LC-KJ = tested on: RERF-LC-KJ
Method in brief: as §1

O=c1cc(N2CCOCC2)oc2c(-c3cccc4c3sc3ccccc34)cccc12 + C[C@]1(O)C[C@@H](c2nc(-c3ccc4ccc(-c5ccccc5)nc4c3)c3c(N)nccn32)C1 [Linsitinib] (partner 1 µM)
relative viability (CAL-12T; first compound 0.01 µM): 0.851
relative viability (CAL-12T; first compound 0.03162 µM): 0.809
relative viability (CAL-12T; first compound 0.1 µM): 0.842
relative viability (CAL-12T; first compound 0.3162 µM): 0.873
relative viability (CAL-12T; first compound 1 µM): 0.879
relative viability (EKVX; first compound 0.01 µM): 0.989
relative viability (EKVX; first compound 0.03162 µM): 0.907
relative viability (EKVX; first compound 0.1 µM): 1.19
relative viability (EKVX; first compound 0.3162 µM): 0.956
relative viability (EKVX; first compound 1 µM): 1.01
relative viability (H3255; first compound 0.01 µM): 1
relative viability (H3255; first compound 0.03162 µM): 0.988
relative viability (H3255; first compound 0.1 µM): 1.14
relative viability (H3255; first compound 0.3162 µM): 0.95
relative viability (H3255; first compound 1 µM): 1.09
relative viability (HCC-15; first compound 0.01 µM): 0.786
relative viability (HCC-15; first compound 0.03162 µM): 0.869
relative viability (HCC-15; first compound 0.1 µM): 0.936
relative viability (HCC-15; first compound 0.3162 µM): 0.902
relative viability (HCC-15; first compound 1 µM): 0.847
relative viability (HCC-827; first compound 0.01 µM): 0.906
relative viability (HCC-827; first compound 0.03162 µM): 0.977
relative viability (HCC-827; first compound 0.1 µM): 0.941
relative viability (HCC-827; first compound 0.3162 µM): 0.941
relative viability (HCC-827; first compound 1 µM): 0.891
relative viability (LCLC-97TM1; first compound 0.01 µM): 0.217
relative viability (LCLC-97TM1; first compound 0.03162 µM): 0.203
relative viability (LCLC-97TM1; first compound 0.3162 µM): 0.198
relative viability (LCLC-97TM1; first compound 1 µM): 0.18
relative viability (LK-2; first compound 0.01 µM): 0.585
relative viability (LK-2; first compound 0.03162 µM): 0.754
relative viability (LK-2; first compound 0.1 µM): 0.83
relative viability (LK-2; first compound 0.3162 µM): 0.554
relative viability (LK-2; first compound 1 µM): 0.69
relative viability (NCI-H1355; first compound 0.01 µM): 0.772
relative viability (NCI-H1355; first compound 0.03162 µM): 0.895
relative viability (NCI-H1355; first compound 0.3162 µM): 0.819
relative viability (NCI-H1355; first compound 1 µM): 0.849
relative viability (NCI-H1563; first compound 0.01 µM): 1.18
relative viability (NCI-H1563; first compound 0.03162 µM): 1.21
relative viability (NCI-H1563; first compound 0.1 µM): 1.19
relative viability (NCI-H1563; first compound 0.3162 µM): 1.14
relative viability (NCI-H1563; first compound 1 µM): 1
relative viability (NCI-H1734; first compound 0.01 µM): 0.963
relative viability (NCI-H1734; first compound 0.03162 µM): 1.03
relative viability (NCI-H1734; first compound 0.1 µM): 0.906
relative viability (NCI-H1734; first compound 0.3162 µM): 0.843
relative viability (NCI-H1734; first compound 1 µM): 0.89
relative viability (NCI-H1755; first compound 0.01 µM): 1.04
relative viability (NCI-H1755; first compound 0.03162 µM): 0.98
relative viability (NCI-H1755; first compound 0.1 µM): 1.03
relative viability (NCI-H1755; first compound 0.3162 µM): 1.03
relative viability (NCI-H1755; first compound 1 µM): 1.01
relative viability (NCI-H1975; first compound 0.01 µM): 0.833
relative viability (NCI-H1975; first compound 0.03162 µM): 0.922
relative viability (NCI-H1975; first compound 0.1 µM): 0.94
relative viability (NCI-H1975; first compound 0.3162 µM): 0.929
relative viability (NCI-H1975; first compound 1 µM): 1
relative viability (NCI-H2228; first compound 0.03162 µM): 0.571
relative viability (NCI-H2228; first compound 0.1 µM): 0.539
relative viability (NCI-H2228; first compound 0.3162 µM): 0.904
relative viability (NCI-H2228; first compound 1 µM): 0.74
relative viability (NCI-H2405; first compound 0.01 µM): 0.972
relative viability (NCI-H2405; first compound 0.03162 µM): 1.01
relative viability (NCI-H2405; first compound 0.1 µM): 1.01
relative viability (NCI-H2405; first compound 0.3162 µM): 0.924
relative viability (NCI-H2405; first compound 1 µM): 0.955
relative viability (NCI-H322M; first compound 0.01 µM): 0.913
relative viability (NCI-H322M; first compound 0.03162 µM): 0.915
relative viability (NCI-H322M; first compound 0.3162 µM): 0.993
relative viability (NCI-H322M; first compound 1 µM): 0.83
relative viability (NCI-H520; first compound 0.01 µM): 1.02
relative viability (NCI-H520; first compound 0.03162 µM): 1.01
relative viability (NCI-H520; first compound 0.1 µM): 1.22
relative viability (NCI-H520; first compound 0.3162 µM): 0.923
relative viability (NCI-H520; first compound 1 µM): 0.876
relative viability (NCI-H661; first compound 0.01 µM): 0.652
relative viability (NCI-H661; first compound 0.03162 µM): 0.579
relative viability (NCI-H661; first compound 0.1 µM): 0.571
relative viability (NCI-H661; first compound 0.3162 µM): 0.649
relative viability (NCI-H661; first compound 1 µM): 0.614
relative viability (PC-14; first compound 0.01 µM): 0.998
relative viability (PC-14; first compound 0.03162 µM): 0.934
relative viability (PC-14; first compound 0.1 µM): 0.952
relative viability (PC-14; first compound 0.3162 µM): 0.952
relative viability (PC-14; first compound 1 µM): 0.848
relative viability (PC-3 [JPC-3]; first compound 0.01 µM): 0.967
relative viability (PC-3 [JPC-3]; first compound 0.03162 µM): 0.865
relative viability (PC-3 [JPC-3]; first compound 0.1 µM): 0.943
relative viability (PC-3 [JPC-3]; first compound 0.3162 µM): 0.916
relative viability (PC-3 [JPC-3]; first compound 1 µM): 0.913
relative viability (RERF-LC-KJ; first compound 0.01 µM): 0.908
relative viability (RERF-LC-KJ; first compound 0.03162 µM): 0.937
relative viability (RERF-LC-KJ; first compound 0.1 µM): 0.914
relative viability (RERF-LC-KJ; first compound 0.3162 µM): 0.869
relative viability (RERF-LC-KJ; first compound 1 µM): 0.874

From the supplement of paper PMC10307832
